# From patent US8491897B2, “Treatment of neuropathic pain using anti-thrombospondin antibodies” (The Board of Trustees of the Leland Stanford Junior …, priority 2007, dated 2013)
# “Also recorded” adds a separate entry of the source.
# System: barrel cortex
# Experiment: Lesion-induced barrel cortex plasticity assay in neonatal mice
# Type: in vivo
# From the text: Understanding how the brain remodels its neuronal networks has been a major goal of neurobiology, as these processes underlie learning, memory and recovery from injury. Is astrocyte-induced synapse formation involved in remodeling neural circuits during development? To explore this question a well-established developmental plasticity paradigm, ‘the barrel cortex plasticity’ assay, was used. The nerves that innervate the major whiskers on the snout of the mouse project to the brain as a topographically ordered “somatotopic” map where afferent axons and target cells form ordered modules that recapitulate the structural organization seen on the whisker pad (Erzurumlu et al., The Anatomical Record 288:121-134, 2006). First, neurons of the trigeminal nerve innervate the mystacial vibrissae (whiskers) and send projections […]. These projections then form synapses at the brainstem (barrelettes) and their afferents then project and synapse at the thalamus (barreloids). […]
# Two groups of neonatal mice were injected either with GBP or an equal volume of saline daily starting at P0 until P7. […] The mice were then sacrificed at P7 and their barrel structure corresponding to both the unlesioned “control” hemisphere and the lesioned hemisphere were analyzed. […]
structure (smiles),measurement,setting,value
"NCC1(CC(=O)O)CCCCC1 [Gabapentin, 1-(aminomethyl)cyclohexaneacetic acid]",barrel formation on unlesioned control side,"daily injection P0 to P7, listed as GBP",typical barrels formed on the control side; also recorded: did not affect the barrel cortex formation
same,proportion of injected mice with atypical/aberrant barrel cortex plasticity response,"lesioned side, daily injection P0 to P7, C-row whisker lesion at P1",50%
